Measurements: article PMC4303583 (International journal of biological macromolecules, 2012)
Read-outs that look alike come from different tables or passages of the source.

Columns and labels:
[1] = system: wild-type E. coli strain pBWU13.4/DK8; assay type: cell-based, Escherichia coli
[2] = target: T1, E. coli ATP synthase (purified F1 or membrane bound F1Fo) (Escherichia coli, UniProt P0ABA6+P0ABB0+P0ABB4); experiment: biochemical; assay type: biochemical
[3] = target: T1, E. coli ATP synthase (purified F1 or membrane bound F1Fo); conditions: maximal inhibition; cited from earlier work
[4] = OD595 after ~20 hours growth at 37 °C, control 100, null 45
[5] = left over ATPase activity at maximal inhibition
[6] = purified F1 or membranes, preincubated 60 min at 23°C, varied concentrations
[7] = left over ATPase activity at maximal inhibition, purified F1 or membranes

T1 sequence (P0ABA4 whole entry): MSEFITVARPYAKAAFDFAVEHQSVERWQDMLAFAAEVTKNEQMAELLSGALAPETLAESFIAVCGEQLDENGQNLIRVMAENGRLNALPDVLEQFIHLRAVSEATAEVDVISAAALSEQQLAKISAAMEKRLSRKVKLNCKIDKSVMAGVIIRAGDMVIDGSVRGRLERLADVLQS
T1 sequence (P0ABB4 2-460): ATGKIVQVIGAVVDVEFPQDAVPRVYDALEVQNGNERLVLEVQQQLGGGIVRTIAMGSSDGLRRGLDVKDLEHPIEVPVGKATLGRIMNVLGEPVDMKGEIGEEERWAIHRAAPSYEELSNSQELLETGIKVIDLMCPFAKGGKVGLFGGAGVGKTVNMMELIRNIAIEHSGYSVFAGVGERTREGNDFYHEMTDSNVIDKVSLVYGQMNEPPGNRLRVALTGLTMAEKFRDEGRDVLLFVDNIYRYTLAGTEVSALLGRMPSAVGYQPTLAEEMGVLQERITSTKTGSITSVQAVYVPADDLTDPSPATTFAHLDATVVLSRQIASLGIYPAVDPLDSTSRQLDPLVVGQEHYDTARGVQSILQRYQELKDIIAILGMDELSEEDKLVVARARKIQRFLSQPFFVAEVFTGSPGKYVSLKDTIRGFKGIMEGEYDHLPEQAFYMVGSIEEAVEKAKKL
T1 sequence (P0ABA6 whole entry): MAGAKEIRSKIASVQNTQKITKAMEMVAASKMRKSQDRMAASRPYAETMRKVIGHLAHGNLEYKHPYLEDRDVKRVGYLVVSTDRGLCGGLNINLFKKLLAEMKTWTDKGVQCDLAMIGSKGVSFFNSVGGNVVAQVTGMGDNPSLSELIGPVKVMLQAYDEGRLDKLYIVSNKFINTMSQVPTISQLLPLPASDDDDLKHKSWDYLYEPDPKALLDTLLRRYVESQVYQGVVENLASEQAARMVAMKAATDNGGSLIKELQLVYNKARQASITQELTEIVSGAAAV
T1 sequence (P0A6E6 2-139, further chain): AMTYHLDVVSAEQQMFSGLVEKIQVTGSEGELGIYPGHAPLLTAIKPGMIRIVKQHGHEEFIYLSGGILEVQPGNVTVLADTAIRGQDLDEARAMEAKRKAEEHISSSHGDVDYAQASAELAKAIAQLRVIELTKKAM
T1 sequence (P0ABB0 whole entry): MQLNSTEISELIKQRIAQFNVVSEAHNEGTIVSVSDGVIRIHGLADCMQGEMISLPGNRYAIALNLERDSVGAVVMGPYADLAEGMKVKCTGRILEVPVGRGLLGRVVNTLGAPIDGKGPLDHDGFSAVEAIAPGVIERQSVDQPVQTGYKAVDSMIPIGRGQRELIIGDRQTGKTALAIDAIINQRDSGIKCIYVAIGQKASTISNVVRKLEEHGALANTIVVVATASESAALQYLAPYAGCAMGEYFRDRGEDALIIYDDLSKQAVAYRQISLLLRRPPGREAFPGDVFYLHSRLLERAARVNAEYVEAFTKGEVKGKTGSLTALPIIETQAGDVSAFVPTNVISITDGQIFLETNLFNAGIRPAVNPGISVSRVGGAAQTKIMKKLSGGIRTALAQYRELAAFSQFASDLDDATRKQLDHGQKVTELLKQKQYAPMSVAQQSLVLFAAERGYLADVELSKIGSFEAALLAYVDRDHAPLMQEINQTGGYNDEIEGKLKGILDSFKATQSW

Molecule	Growth yield in limiting glucose (%) [1, 4] [%]	Residual ATPase Activity (%) [2, 5] [%]	maximum amount of inhibition of ATPase activity [2, 6]	residual activity [2, 7]	IC50 [2] [µM]	other results
1,8,9-Anthracentriol [PC17]	69	70	~ 30%			
Cc1cc(O)c(C(C)C)cc1O [PC01, Dihydrothymoquinone]	66	60	~ 40%	~ 60%		
Oc1ccc(O)cc1 [PC02, Hydroquinone]					~20	Growth yield in limiting glucose (%) [1]: 55%; Residual ATPase Activity (%) [2]: 20%; maximum amount of inhibition of ATPase activity [2]: ~ 80%
Oc1cccc(O)c1 [PC03, Resorcinol]	79	80	~ 20%	~ 80%		
Oc1ccccc1O [PC04, Catechol]	57	60	~ 40%	~ 60%		
Oc1ccc(N=Cc2ccccc2O)cc1 [PC05, 2-[[(4-hydroxyphenyl)Imino]methyl]phenol]	42	0			~5	
Oc1cccc(N=Cc2ccccc2O)c1 [PC06, 2-[[(3-Hydroxyphenyl)imino]methyl]phenol]	51	15			~5.25	
Oc1cccc(C=Nc2ccccc2O)c1 [PC07, 3-[[(2-Hydroxyphenyl)imino]methyl]phenol]		15			~9	
Oc1ccc(C=Nc2cccc(O)c2)cc1 [PC08, 4-[[(3-Hydroxyphenyl)imino]methyl]phenol]		0			~9	
Oc1ccccc1C=Nc1ccccc1O [PC09, 2-[[(2-Hydroxyphenyl)imino]methyl]phenol]		5			~7	
Oc1cccc(C=Nc2cccc(O)c2)c1 [PC10, 3-[[(3-Hydroxyphenyl)imino]methyl]phenol]		0			~2.25	
Oc1ccc(C=Nc2ccc(O)cc2)cc1 [PC11, 4-[[(4-Hydroxyphenyl)imino]methyl]phenol]		80		~ 80%		
O=[N+]([O-])c1cc(O)ccc1N=Cc1ccccc1O [PC12, 2-[[(4-Hydroxy-2-nitrophenyl)imino]methyl]phenol]		0			~6	
O=[N+]([O-])c1ccc(N=Cc2ccccc2O)c(O)c1 [PC13, 2-[[(2-Hydroxy-4-nitrophenyl)imino]methyl]phenol]		0			~5	
O=[N+]([O-])c1ccc(OP(=O)(Oc2ccc([N+](=O)[O-])cc2)Oc2ccc([N+](=O)[O-])cc2)cc1 [PC14, Tris(4-nitrophenyl)phosphate]	57	55	~ 45%	~ 55%		
O=[N+]([O-])c1ccc(OP(=O)(O)Oc2ccc([N+](=O)[O-])cc2)cc1 [PC15, Bis(4-nitrophenyl)phosphate]	63	60	~ 40%			
O=C1c2cccc(O)c2C(=O)c2c(O)cccc21 [PC16, 1,8-Dihydroxy-9,10-anthraquinone]	80	78	~ 22%	~ 78%		
Oc1ccc(/C=C/c2cc(O)cc(O)c2)cc1 [resveratrol]						inhibition of E. coli ATP synthase [3]: ~ 40%
